Test results from US20240067693A1, “POLYPEPTIDES AND USES THEREOF” (MEDIMMUNE LIMITED, priority 2020, published 2024).
Numbered stars: 1 amine (or outer) side, 2 acyl side, 3 side chain; on linkers, the order of the positions; unused ones are H or OH. Bridge positions count the residues as written; N and C are the ends. Square brackets hold non-standard residues; d marks the D form. Side chains are listed from the residue outwards. Peptide text beside a SMILES is read from it. * marks the point of attachment. C20 diacid = O=C(O)CCCCCCCCCCCCCCCCCCC(=O)*; C18 diacid = O=C(O)CCCCCCCCCCCCCCCCC(=O)*; γGlu = O=C(O)[C@H](CCC(=O)[*:2])N[*:1]; Hyp = O=C(O)[C@@H]1C[C@@H](O)CN1; Aib = CC(C)(N)C(=O)O

Assays:
[1] = target: T1, human amylin receptor (calcitonin receptor co-expressed with receptor activity modifying protein, RAMP3) (hAMYR3) (Homo sapiens, UniProt O60896+P30988); experiment: cAMP production in 1321N1 cells with stable recombinant expression of human amylin receptor (hAMYR3); assay type: cell-based; settings: for Ratio (selectivity hAMYR vs hCTR, ratio of EC50 values at the two receptors): EC50 hCTR / EC50 hAMYR3; for EC50: cAMP, 1321N1 cells, assay buffer with 0.1% BSA, read-out: EC50 (pM) hAMYR3
T1 construct: expressed in transfected cells
T1 sequence (P30988 25-474): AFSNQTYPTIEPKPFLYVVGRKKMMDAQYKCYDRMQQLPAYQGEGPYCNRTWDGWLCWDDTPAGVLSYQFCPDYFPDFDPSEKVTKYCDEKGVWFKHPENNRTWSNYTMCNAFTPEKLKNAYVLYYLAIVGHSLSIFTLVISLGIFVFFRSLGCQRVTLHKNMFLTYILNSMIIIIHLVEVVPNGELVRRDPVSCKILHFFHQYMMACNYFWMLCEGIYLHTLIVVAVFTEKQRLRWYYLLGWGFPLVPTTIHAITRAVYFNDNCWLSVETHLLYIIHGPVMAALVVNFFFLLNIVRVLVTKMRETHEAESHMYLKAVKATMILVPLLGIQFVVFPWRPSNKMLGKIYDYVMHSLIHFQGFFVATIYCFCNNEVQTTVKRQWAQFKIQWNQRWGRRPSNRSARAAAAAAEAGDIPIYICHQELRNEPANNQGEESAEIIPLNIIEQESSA
T1 sequence (O60896 24-148 partner): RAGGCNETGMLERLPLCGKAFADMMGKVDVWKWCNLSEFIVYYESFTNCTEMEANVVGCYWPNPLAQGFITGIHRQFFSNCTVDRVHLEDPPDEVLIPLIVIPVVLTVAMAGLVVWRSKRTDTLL
Summary of the method: (§1)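 Receptor-expressing cells (human receptors in 1321N1, rat receptors in HEK) incubated 30 min at room temperature with peptide in HBSS/HEPES pH 7.4, 0.1% BSA, 0.5 mM IBMX. cAMP read by HTRF; EC50 from 4-parameter fit as % of maximal amylin or calcitonin response.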

[2] = target: T2, human calcitonin receptor (hCTR) (Homo sapiens, UniProt P30988); experiment: cAMP production in 1321N1 cells with stable recombinant expression of human calcitonin receptor (hCTR); assay type: cell-based; settings: cAMP, 1321N1 cells, assay buffer with 0.1% BSA; read-out: EC50 (pM) hCTR
T2 construct: expressed in transfected cells
T2 sequence (P30988 25-474): T1 sequence (P30988 25-474)
Summary of the method: as §1

SMILES	Ratio (selectivity hAMYR vs hCTR, ratio of EC50 values at the two receptors) [1]	EC50 [1] [pM]	EC50 [2] [pM]
CC[C@H](C)[C@H](NC(=O)[C@@H]1CCCN1C(=O)C(C)(C)NC(=O)[C@H](Cc1ccccc1)NC(=O)[C@H](CC(N)=O)NC(=O)[C@H](CC(N)=O)NC(=O)[C@H](CO)NC(=O)[C@H](CO)NC(=O)[C@H](Cc1c[nH]cn1)NC(=O)[C@@H](NC(=O)[C@H](CC(C)C)NC(=O)[C@H](Cc1ccccc1)NC(=O)[C@H](CC(N)=O)NC(=O)[C@H](C)NC(=O)[C@H](CC(C)C)NC(=O)[C@H](CCCNC(=N)N)NC(=O)[C@H](CCC(N)=O)NC(=O)[C@@H](NC(=O)[C@H](C)NC(=O)[C@@H]1CSSC[C@H](NC(=O)[C@H](CCCCN)NC(=O)[C@@H](N)CCCCNC(=O)CC[C@H](NC(=O)CCCCCCCCCCCCCCCCC(=O)O)C(=O)O)C(=O)N[C@@H](CC(N)=O)C(=O)N[C@@H]([C@@H](C)O)C(=O)N[C@@H](C)C(=O)N[C@@H]([C@@H](C)O)C(=O)N1)[C@@H](C)O)C(C)C)C(=O)N[C@@H](CC(C)C)C(=O)N1CCC[C@H]1C(=O)N1CCC[C@H]1C(=O)N[C@H](C(=O)N[C@@H](CC(N)=O)C(=O)N[C@H](C(=O)NCC(=O)N[C@@H](CO)C(=O)N[C@@H](CC(N)=O)C(=O)N[C@H](C(=O)N[C@@H](Cc1ccc(O)cc1)C(N)=O)[C@@H](C)O)C(C)C)[C@@H](C)O [Peptide 110, K(γE-C18diacid)K[CNTATC]ATQRLANFLVHSSNNF(Aib)PILPPTNVGSNTY-amide] (H-K([γGlu-C18 diacid])KCNTATCATQRLANFLVHSSNNF[Aib]PILPPTNVGSNTY-NH2; disulfide 3-8; N-terminus assumed)	3	204	541
CC[C@H](C)[C@H](NC(=O)[C@@H]1CCCN1C(=O)CNC(=O)[C@H](Cc1ccccc1)NC(=O)[C@H](Cc1c[nH]cn1)NC(=O)[C@H](CC(N)=O)NC(=O)[C@H](CO)NC(=O)[C@H](CO)NC(=O)[C@H](Cc1c[nH]cn1)NC(=O)[C@@H](NC(=O)[C@H](CC(C)C)NC(=O)[C@H](Cc1ccccc1)NC(=O)[C@H](CC(N)=O)NC(=O)[C@H](C)NC(=O)[C@H](CC(C)C)NC(=O)[C@H](CCCNC(=N)N)NC(=O)[C@H](CCC(N)=O)NC(=O)[C@@H](NC(=O)[C@H](C)NC(=O)[C@@H]1CSSC[C@H](NC(=O)[C@H](CCCCN)NC(=O)[C@@H](N)CCCCNC(=O)CC[C@H](NC(=O)CCCCCCCCCCCCCCCCC(=O)O)C(=O)O)C(=O)N[C@@H](CC(N)=O)C(=O)N[C@@H]([C@@H](C)O)C(=O)N[C@@H](C)C(=O)N[C@@H]([C@@H](C)O)C(=O)N1)[C@@H](C)O)C(C)C)C(=O)N[C@@H](CC(C)C)C(=O)N1CCC[C@H]1C(=O)N1CCC[C@H]1C(=O)N[C@H](C(=O)N[C@@H](CC(N)=O)C(=O)N[C@H](C(=O)NCC(=O)N[C@@H](CO)C(=O)N[C@@H](CCC(=O)O)C(=O)N[C@H](C(=O)N[C@@H](Cc1ccc(O)cc1)C(N)=O)[C@@H](C)O)C(C)C)[C@@H](C)O [Peptide 111] (H-K([γGlu-C18 diacid])KCNTATCATQRLANFLVHSSNHFGPILPPTNVGSETY-NH2; disulfide 3-8; N-terminus assumed)	5	403	1880
CC[C@H](C)[C@H](NC(=O)[C@H](CO)NC(=O)[C@H](Cc1c[nH]cn1)NC(=O)[C@@H](NC(=O)[C@H](CC(C)C)NC(=O)[C@H](Cc1ccccc1)NC(=O)[C@H](CC(N)=O)NC(=O)[C@H](C)NC(=O)[C@H](CC(C)C)NC(=O)[C@H](CCCNC(=N)N)NC(=O)[C@H](CCC(N)=O)NC(=O)[C@@H](NC(=O)[C@H](C)NC(=O)[C@@H]1CSSC[C@H](NC(=O)[C@@H](N)CCCCNC(=O)CC[C@H](NC(=O)CC[C@H](NC(=O)CCCCCCCCCCCCCCCCCCC(=O)O)C(=O)O)C(=O)O)C(=O)N[C@@H](CC(N)=O)C(=O)N[C@@H]([C@@H](C)CC)C(=O)N[C@@H](C)C(=O)N[C@@H]([C@@H](C)O)C(=O)N1)[C@@H](C)O)C(C)C)C(=O)N[C@@H](C)C(=O)N[C@@H](CC(N)=O)C(=O)N[C@@H](Cc1ccccc1)C(=O)NCC(=O)N1CCC[C@H]1C(=O)N[C@H](C(=O)N[C@@H](CC(C)C)C(=O)N1CCC[C@H]1C(=O)N1CCC[C@H]1C(=O)N[C@H](C(=O)N[C@@H](CC(N)=O)C(=O)N[C@H](C(=O)NCC(=O)N[C@@H](CO)C(=O)N[C@@H](CCCNC(=N)N)C(=O)N[C@H](C(=O)N[C@@H](Cc1ccc(O)cc1)C(N)=O)[C@@H](C)O)C(C)C)[C@@H](C)O)[C@@H](C)CC [Peptide 118] (H-K([γGlu-γGlu-C20 diacid])CNIATCATQRLANFLVHSIANFGPILPPTNVGSRTY-NH2; disulfide 2-7; N-terminus assumed)	2	417	792
CC[C@H](C)[C@H](NC(=O)[C@H](C)NC(=O)[C@@H]1CCCN1C(=O)[C@H](Cc1ccccc1)NC(=O)[C@H](CC(N)=O)NC(=O)[C@@H]1CCCN1C(=O)[C@@H]1CCCN1C(=O)[C@H](CO)NC(=O)[C@H](Cc1c[nH]cn1)NC(=O)[C@@H](NC(=O)[C@H](CC(C)C)NC(=O)[C@H](Cc1ccccc1)NC(=O)[C@H](CC(N)=O)NC(=O)[C@H](C)NC(=O)[C@H](CC(C)C)NC(=O)[C@H](CCCNC(=N)N)NC(=O)[C@H](CCC(N)=O)NC(=O)[C@@H](NC(=O)[C@H](C)NC(=O)[C@@H]1CSSC[C@H](NC(=O)[C@@H](N)CCCCNC(=O)CC[C@H](NC(=O)CC[C@H](NC(=O)CCCCCCCCCCCCCCCCCCC(=O)O)C(=O)O)C(=O)O)C(=O)N[C@@H](CC(N)=O)C(=O)N[C@@H]([C@@H](C)O)C(=O)N[C@@H](C)C(=O)N[C@@H]([C@@H](C)O)C(=O)N1)[C@@H](C)O)C(C)C)C(=O)N[C@@H](CC(C)C)C(=O)N[C@@H](CO)C(=O)N1CCC[C@H]1C(=O)N[C@H](C(=O)N[C@@H](CC(N)=O)C(=O)N[C@H](C(=O)NCC(=O)N[C@@H](CO)C(=O)N[C@@H](CC(N)=O)C(=O)N[C@H](C(=O)N[C@@H](Cc1ccc(O)cc1)C(N)=O)[C@@H](C)O)C(C)C)[C@@H](C)O [Peptide 119] (H-K([γGlu-γGlu-C20 diacid])CNTATCATQRLANFLVHSPPNFPAILSPTNVGSNTY-NH2; disulfide 2-7; N-terminus assumed)	24	1460	34700
CC[C@H](C)[C@H](NC(=O)[C@H](C)NC(=O)[C@@H]1C[C@@H](O)CN1C(=O)[C@H](Cc1ccccc1)NC(=O)[C@H](CC(N)=O)NC(=O)C(C)(C)NC(=O)[C@H](CO)NC(=O)[C@H](CO)NC(=O)[C@H](Cc1c[nH]cn1)NC(=O)[C@@H](NC(=O)[C@H](CC(C)C)NC(=O)[C@H](Cc1ccccc1)NC(=O)[C@H](CC(N)=O)NC(=O)[C@H](C)NC(=O)[C@H](CC(C)C)NC(=O)[C@H](CCCNC(=N)N)NC(=O)[C@H](CCC(N)=O)NC(=O)[C@@H](NC(=O)[C@H](C)NC(=O)[C@@H]1CSSC[C@H](NC(=O)[C@@H](N)CCCCNC(=O)CC[C@H](NC(=O)CC[C@H](NC(=O)CCCCCCCCCCCCCCCCCCC(=O)O)C(=O)O)C(=O)O)C(=O)N[C@@H](CC(N)=O)C(=O)N[C@@H]([C@@H](C)O)C(=O)N[C@@H](C)C(=O)N[C@@H]([C@@H](C)O)C(=O)N1)[C@@H](C)O)C(C)C)C(=O)N[C@@H](CC(C)C)C(=O)N[C@@H](CO)C(=O)N1CCC[C@H]1C(=O)N[C@H](C(=O)N[C@@H](CC(N)=O)C(=O)N[C@H](C(=O)NCC(=O)N[C@@H](CO)C(=O)N[C@@H](CC(N)=O)C(=O)N[C@H](C(=O)N[C@@H](Cc1ccc(O)cc1)C(N)=O)[C@@H](C)O)C(C)C)[C@@H](C)O [Peptide 121, K(γE-γE-C20diacid)[CNTATC]ATQRLANFLVHSS(Aib)NF(Hyp)AILSPTNVGSNTY-amide] (H-K([γGlu-γGlu-C20 diacid])CNTATCATQRLANFLVHSS[Aib]NF[Hyp]AILSPTNVGSNTY-NH2; disulfide 2-7; N-terminus assumed)	5	1330	6070
